Results: the NIST ThermoML archive (doi:10.1016/j.jct.2016.02.009)

Experiment: molar heat capacity at constant pressure
Settings: 101.33 kPa, Small (less than 1 g) adiabatic calorimetry

CCCCCCCCCCn1cc[n+](C)c1.O=S(=O)([N-]S(=O)(=O)C(F)(F)F)C(F)(F)F
molar heat capacity at constant pressure [J/K/mol]
Settings	Crystal 2	Metastable crystal
4.82 K	3.08	–
4.98 K	–	3.38
5 K	3.41	3.41
5.15 K	3.69	–
5.32 K	–	4.05
5.49 K	4.38	–
5.67 K	–	4.81
5.85 K	5.15	–
6.03 K	–	5.65
6.28 K	6.16	–
6.46 K	–	6.76
6.8 K	7.44	–
6.97 K	–	8.15
7.32 K	8.83	–
7.49 K	–	9.71
7.85 K	10.34	–
8.02 K	–	11.34
8.39 K	11.95	–
8.55 K	–	13.1
8.92 K	13.66	–
9.09 K	–	14.97
9.47 K	15.45	–
9.62 K	–	16.9
10 K	17.29	18.31
10.01 K	17.32	–
10.16 K	–	18.93
10.63 K	19.54	–
10.78 K	–	21.32
11.31 K	22.05	–
11.46 K	–	24.01
12 K	24.68	–
12.15 K	–	26.84
12.7 K	27.41	–
12.85 K	–	29.77
13.4 K	30.22	–
13.56 K	–	32.75
14.1 K	33.14	–
14.27 K	–	35.9
14.81 K	36.15	–
14.99 K	–	39.03
15 K	36.94	39.12
15.63 K	39.64	–
15.81 K	–	42.67
16.56 K	43.69	–
16.75 K	–	46.88
17.51 K	47.81	–
17.7 K	–	51.06
18.46 K	51.81	–
18.65 K	–	55.14
19.4 K	55.79	–
19.6 K	–	59.21
20 K	58.37	61
20.36 K	59.87	–
20.85 K	–	64.6
21.61 K	65.16	–
22.41 K	–	71.3
23.17 K	71.8	–
23.98 K	–	78
24.75 K	78.35	–
25 K	79.32	82.14
25.56 K	–	84.49
26.31 K	84.64	–
27.07 K	–	90.53
27.89 K	90.84	–
28.66 K	–	96.83
29.55 K	97.23	–
30 K	98.9	102
30.24 K	–	102.9
31.4 K	104	–
31.98 K	–	109.5
33.31 K	110.8	–
33.9 K	–	116.3
35 K	116.6	120.1
35.22 K	117.3	–
35.82 K	–	123
37.13 K	123.7	–
37.74 K	–	129.4
39.05 K	129.9	–
39.66 K	–	135.6
40 K	132.9	136.7
41.06 K	136.2	–
41.68 K	–	142
43.16 K	142.8	–
43.79 K	–	148.7
45 K	–	152.5
45.27 K	149.2	–
45.9 K	–	155.3
47.38 K	155.7	–
48.02 K	–	161.8
49.5 K	161.9	–
50 K	163.2	167.6
50.15 K	–	168
51.63 K	168	–
52.27 K	–	174.1
53.75 K	173.9	–
54.4 K	–	180
55.87 K	179.6	–
56.52 K	–	185.7
57.99 K	185.1	–
58.65 K	–	191.3
60 K	190.4	194.8
60.11 K	190.6	–
60.78 K	–	196.8
62.24 K	196.1	–
62.91 K	–	202.2
64.38 K	201.3	–
65.05 K	–	207.5
66.52 K	206.5	–
67.19 K	–	212.7
68.65 K	211.6	–
69.32 K	–	217.8
70 K	214.9	219.4
70.79 K	216.6	–
71.56 K	–	223.1
73.03 K	221.9	–
73.9 K	–	228.4
75.37 K	227.2	–
76.24 K	–	233.8
77.73 K	232.5	–
78.59 K	–	239
80 K	237.4	242.1
80.09 K	237.6	–
80.53 K	238.8	–
80.94 K	–	244.2
81.02 K	–	244.3
82.24 K	242.3	–
82.44 K	242.6	–
82.84 K	–	248.2
83.3 K	–	249.2
83.96 K	245.9	–
84.55 K	–	251.8
85.68 K	249.4	–
86.26 K	–	255.5
87.42 K	253.1	–
87.99 K	–	259.2
89.16 K	256.6	–
89.72 K	–	262.8
90 K	258.5	263.4
90.91 K	260.3	–
91.45 K	–	266.4
92.66 K	263.9	–
93.2 K	–	270
94.42 K	267.5	–
94.95 K	–	273.7
96.19 K	271.1	–
96.7 K	–	277.2
97.97 K	274.7	–
98.47 K	–	280.8
99.75 K	278.1	–
100 K	278.7	283.9
100.23 K	–	284.3
101.59 K	281.8	–
102.07 K	–	288.2
103.5 K	285.5	–
103.96 K	–	292
105.42 K	289.1	–
105.87 K	–	295.9
107.35 K	292.7	–
107.77 K	–	299.7
109.27 K	296.4	–
109.69 K	–	303.6
110 K	297.7	304.1
111.21 K	299.9	–
111.6 K	–	307.4
113.14 K	303.5	–
113.52 K	–	311.1
115.09 K	307	–
115.45 K	–	314.9
117.03 K	310.5	–
117.37 K	–	318.6
118.98 K	314	–
119.3 K	–	322.3
120 K	315.8	323.7
120.92 K	317.4	–
121.23 K	–	326.1
122.88 K	320.8	–
123.16 K	–	329.9
124.83 K	324.3	–
125.09 K	–	333.6
126.79 K	327.7	–
127.03 K	–	337.4
128.75 K	331.1	–
128.97 K	–	341.2
130 K	333.3	343.2
130.71 K	334.5	–
130.9 K	–	345.1
132.67 K	337.9	–
132.84 K	–	348.9
134.64 K	341.3	–
134.78 K	–	352.7
136.6 K	344.8	–
136.72 K	–	356.6
138.57 K	348	–
138.66 K	–	360.6
140 K	350.5	363.3
140.54 K	351.4	–
140.6 K	–	364.4
142.51 K	354.8	–
